{"source": "ChEMBL document CHEMBL3045781", "about": "“Sensitivity monitoring of powdery mildew pathogens to cyflufenamid and the evaluation of resistance risk” (J Pestic Sci, 2006)", "key": {"Podosphaera fusca [1]": {"test_system": "Podosphaera fusca", "assay": "Antifungal activity against Sphaerotheca cucurbitae in compound treated cucumber leaves at 20 degC measured after 5 days by leaf disk assay", "format": "functional, organism-based"}, "[2]": {"test_system": "Blumeria graminis f. sp. tritici", "assay": "Antifungal activity against Blumeria graminis f. sp. tritici after 6.25 g/ha 16 applications of compound by selection pressure test", "format": "functional, organism-based"}, "[3]": {"test_system": "Blumeria graminis f. sp. tritici", "assay": "Antifungal activity against Blumeria graminis f. sp. tritici strains by leaf segment floating assay", "format": "functional, organism-based"}, "Podosphaera fusca [4]": {"test_system": "Podosphaera fusca", "assay": "Antifungal activity against thiophanate-methyl-resistant Sphaerotheca cucurbitae SFTMR-1", "format": "functional"}, "Podosphaera fusca [5]": {"test_system": "Podosphaera fusca", "assay": "Antifungal activity against kresoxim-methyl-resistant Sphaerotheca cucurbitae SFKMR-1", "format": "functional"}, "Podosphaera fusca [6]": {"test_system": "Podosphaera fusca", "assay": "Antifungal activity against wild type Sphaerotheca cucurbitae SFS-1", "format": "functional"}, "[7]": {"test_system": "Blumeria graminis f. sp. tritici", "assay": "Antifungal activity against Blumeria graminis f. sp. tritici strains in compound treated wheat seedlings measured after 7 days by pot assay", "format": "functional, organism-based"}, "Podosphaera fusca [8]": {"test_system": "Podosphaera fusca", "assay": "Antifungal activity against triflumizole-resistant Sphaerotheca cucurbitae SFTFR-1", "format": "functional"}, "[9]": {"test_system": "Blumeria graminis f. sp. tritici", "assay": "Antifungal activity against Blumeria graminis f. sp. tritici after 6.25 g/ha 6 applications of compound in pot by selection pressure test (Control = 0.097 ppm)", "format": "functional, organism-based"}}}
{"molecule": "O=C(Cc1ccccc1)N/C(=N\\OCC1CC1)c1c(C(F)(F)F)ccc(F)c1F", "note": "[CYFLUFENAMID]", "values": [{"measurement": "EC50", "setting": "Podosphaera fusca [1]", "result": 0.0019, "unit": "ppm"}, {"measurement": "MIC", "setting": "Podosphaera fusca [1]; Podosphaera fusca, 120 h", "result": 0.001, "unit": "µg/mL"}, {"measurement": "EC50", "setting": "[2]", "result": 0.0008, "unit": "ppm"}, {"measurement": "EC50", "setting": "[3]", "result": 0.0011, "unit": "ppm"}, {"measurement": "MIC", "setting": "Podosphaera fusca [4]", "result": 0.8, "unit": "µg/mL"}, {"measurement": "MIC", "setting": "Podosphaera fusca [5]", "result": 0.8, "unit": "µg/mL"}, {"measurement": "MIC", "setting": "Podosphaera fusca [6]", "result": 0.8, "unit": "µg/mL"}, {"measurement": "EC50", "setting": "[7]", "result": 0.029, "unit": "ppm"}, {"measurement": "MIC", "setting": "[7]; Blumeria graminis, 168 h", "result": 0.2, "unit": "µg/mL"}, {"measurement": "MIC", "setting": "Podosphaera fusca [8]", "result": 0.8, "unit": "µg/mL"}, {"measurement": "EC50", "setting": "[9]", "result": 0.007, "unit": "ppm"}]}
{"molecule": "CO/N=C(/C(=O)OC)c1ccccc1COc1ccccc1C", "note": "[KRESOXIM-METHYL]", "values": [{"measurement": "MIC", "setting": "Podosphaera fusca [5]", "result": "> 100", "unit": "µg/mL"}, {"measurement": "MIC", "setting": "Podosphaera fusca [6]", "result": 0.8, "unit": "µg/mL"}]}
{"molecule": "COC(=O)NC(=S)Nc1ccccc1NC(=S)NC(=O)OC", "note": "[THIOPHANATE METHYL]", "values": [{"measurement": "MIC", "setting": "Podosphaera fusca [4]", "result": "> 100", "unit": "µg/mL"}, {"measurement": "MIC", "setting": "Podosphaera fusca [6]", "result": 1, "unit": "µg/mL"}]}
{"molecule": "CCCOC/C(=N\\c1ccc(Cl)cc1C(F)(F)F)n1ccnc1", "note": "[TRIFLUMIZOLE]", "values": [{"measurement": "MIC", "setting": "Podosphaera fusca [6]", "result": 0.1, "unit": "µg/mL"}, {"measurement": "MIC", "setting": "Podosphaera fusca [8]", "result": 5, "unit": "µg/mL"}]}
